According to patent US8551991B2, “1,2,3,4-tetrahydroquinoxaline derivative having glucocorticoid receptor binding activity” (Santen Pharmaceutical Co., Ltd., priority 2006, dated 2013):

target: T1, Recombinant human GR (Homo sapiens, UniProt P04150); test: GR competitor assay by fluorescence polarization (binding activity to glucocorticoid receptor); details: 20 μM test compound solution, 25 μL per well plus 12.5 μL each of 4×GS1 and 4×GR solution; Fluormone GS1 ligand; positive control 2 mM dexamethasone; read-out: GR Binding ratio (%)
T1 construct: purchased Invitrogen P2816
T1 sequence (P04150 1-777): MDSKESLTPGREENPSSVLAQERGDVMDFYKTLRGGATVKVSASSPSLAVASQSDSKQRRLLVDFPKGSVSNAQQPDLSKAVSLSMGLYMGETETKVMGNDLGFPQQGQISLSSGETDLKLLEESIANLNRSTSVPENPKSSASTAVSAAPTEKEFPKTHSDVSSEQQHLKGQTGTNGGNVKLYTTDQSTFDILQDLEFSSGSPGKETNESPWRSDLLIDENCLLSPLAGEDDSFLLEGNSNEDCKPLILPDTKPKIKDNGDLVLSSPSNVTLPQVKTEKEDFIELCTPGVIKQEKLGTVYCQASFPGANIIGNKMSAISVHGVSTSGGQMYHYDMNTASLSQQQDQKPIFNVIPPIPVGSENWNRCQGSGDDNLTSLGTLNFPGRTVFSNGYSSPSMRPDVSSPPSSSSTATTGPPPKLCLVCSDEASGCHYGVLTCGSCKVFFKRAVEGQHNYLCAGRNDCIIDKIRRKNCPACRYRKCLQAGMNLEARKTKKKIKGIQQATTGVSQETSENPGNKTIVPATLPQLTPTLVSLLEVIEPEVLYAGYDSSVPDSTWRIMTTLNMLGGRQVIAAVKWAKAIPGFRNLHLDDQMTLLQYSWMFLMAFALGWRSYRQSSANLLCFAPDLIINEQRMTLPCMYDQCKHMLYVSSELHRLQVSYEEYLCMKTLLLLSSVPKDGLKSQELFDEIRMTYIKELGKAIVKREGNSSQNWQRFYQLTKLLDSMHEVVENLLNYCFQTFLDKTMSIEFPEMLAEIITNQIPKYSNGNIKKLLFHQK
Method: 1. Evaluation Test for Binding Activity to Glucocorticoid Receptor (Hereinafter Referred to as “GR”)
In order to evaluate a binding activity to GR, a receptor competitor assay was carried out by a fluorescence polarization method. In the assay, a GR competitor assay kit (manufactured by Invitrogen, cat No. P2816) was used, and a procedure was carried out according to the protocol attached to the kit. Hereinafter, the specific method will be described.
GR screening buffer: A buffer containing 10 mM potassium phosphate (pH 7.4), 20 mM sodium molybdate (Na2MoO4), 0.1 mM ethylene diamine tetraacetic acid (EDTA), 5 mM dithiothreitol (DTT), 0.1 mM stabilizing peptide and 2% dimethylsulfoxide was prepared.
4×GS1 solution: Fluormone™ GS1, which is a fluorescent glucocorticoid ligand, was diluted with GR screening buffer, whereby a 4 nM solution was prepared.
4×GR solution: Recombinant human GR was diluted with GR screening buffer, whereby a 16 nM solution was prepared.
After a test compound was dissolved in dimethylsulfoxide, the resulting solution was diluted with GR screening buffer, whereby a 20 μM test compound solution was prepared.
1) The test compound solution was added in an amount of 25 μL into each well of a 96-well plate, and then, 4×GS1 solution and 4×GR solution were added in an amount of 12.5 μL into each well, respectively.
2) The plate was incubated in a dark place at room temperature for 2 to 4 hours.
3) By using a multimode plate reader, Analyst™ HT (manufactured by LJL Biosystems), fluorescence polarization of each well was measured. As the blank, a well containing GR screening buffer in place of the test compound and 4×GS1 solution was used.
4) The same procedure as that in the above 1) to 3) was carried out except that GR screening buffer was used in place of the test compound solution, and the obtained result was taken as the negative control.
5) The same procedure as that in the above 1) to 3) was carried out except that 2 mM dexamethasone was used in place of the test compound solution, and the obtained result was taken as the positive control.
A GR binding ratio (%) was calculated from the following equation.
GR binding ratio (%)=100×[1-(fluorescence polarization of test compound solution-fluorescence polarization of positive control solution)/(fluorescence polarization of negative control solution—fluorescence polarization of positive control solution)]

Compound	inhibition at 10 µM [%]
COc1ccc(C(=O)OCc2c(-c3ccc(OC(=O)c4ccccc4C)cc3OC)ccc3c2NC(=O)C(C)(C)N3)cc1 [Compound 1-4, 7-[2-Methoxy-4-(2-methylbenzoyloxy)phenyl]-8-(4-methoxybenzoyloxymethyl)-3,3-dimethyl-3,4-dihydro-1H-quinoxalin-2-one]	91
COc1ccc(F)cc1-c1ccc2c(c1COC(=O)c1ccc(C)cc1)NC(=O)C(C)(C)N2 [Compound 2-2]	99
COc1cc(F)ccc1-c1ccc2c(c1COC(=O)c1ccc(C)s1)N(C)C(=O)C(C)(C)N2 [Compound 2-9]	99
COc1cc(F)ccc1-c1ccc2c(c1COC(=O)c1ccc(Br)s1)N(C)C(=O)C(C)(C)N2 [Compound 2-16]	100
COc1cc(F)ccc1-c1ccc2c(c1COc1cc([N+](=O)[O-])ccc1C)N(C)C(=O)C(C)(C)N2 [Compound 3-7]	100
COc1ccc(Cl)cc1-c1ccc2c(c1COc1ccccc1CCO)N(C)C(=O)C(C)(C)N2 [Compound 3-10]	100
COc1cc(F)ccc1-c1ccc2c(c1COc1cc(Cl)ccc1C)N(C)C(=O)C(C)(C)N2 [Compound 3-15]	100
COc1ccc([N+](=O)[O-])cc1OCc1c(-c2ccc(F)cc2OC)ccc2c1N(C)C(=O)C(C)(C)N2 [Compound 3-16]	100
C=CCc1ccccc1OCc1c(-c2ccc(F)cc2OC)ccc2c1N(C)C(=O)C(C)(C)N2 [Compound 3-17]	100
COc1ccc(C)cc1NCc1c(-c2ccc(F)cc2OC)ccc2c1N(C)C(=O)C(C)(C)N2 [Compound 4-5]	100
COc1ccc(Cl)cc1-c1ccc2c(c1CNc1cc(F)ccc1C)N(C)C(=O)C(C)(C)N2 [Compound 4-7]	100
COc1ccc(Cl)cc1-c1ccc2c(c1CNc1ccccc1C(C)C)N(C)C(=O)C(C)(C)N2 [Compound 4-10]	100
COc1ccccc1NCc1c(-c2ccc(F)cc2OC)ccc2c1N(C)C(=O)C(C)(C)N2 [Compound 4-11]	100
COc1ccc(F)cc1-c1ccc2c(c1COC(=O)c1ccccc1)N(C)C(=O)C(C)(C)N2 [Compound 5-1, 8-Benzoyloxymethyl7-(5-fluoro-2-methoxyphenyl)-1,3,3-trimethyl-3,4-dihydro-1H-quinoxalin-2-one]	100
COc1ccc(F)cc1-c1ccc2c(c1COc1ccccc1)N(C)C(=O)C(C)(C)N2 [Compound 5-9]	100
COc1ccc(F)cc1-c1ccc2c(c1CNc1ccccc1)N(C)C(=O)C(C)(C)N2 [Compound 5-14]	100
CCN1C(=O)C(C)(C)Nc2ccc(-c3cc(F)ccc3OC)c(COC(=O)c3ccc(C)cc3)c21 [Compound 5-18]	100
C=CCN1C(=O)C(C)(C)Nc2ccc(-c3cc(F)ccc3OC)c(COC(=O)c3ccc(C)cc3)c21 [Compound 5-19]	100
COc1ccc(C(=O)OCc2c(-c3ccc(OC(=O)c4ccccc4C)cc3OC)ccc3c2N(C)C(=O)C(C)(C)N3)cc1 [Compound 5-21]	100
COc1ccc([N+](=O)[O-])cc1OCc1c(-c2ccc(OC(=O)c3ccccc3C)cc2OC)ccc2c1N(C)C(=O)C(C)(C)N2 [Compound 5-22]	99
COc1cc(OC(=O)c2ccccc2C)ccc1-c1ccc2c(c1COC(=O)c1cccc(F)c1)N(C)C(=O)C(C)(C)N2 [Compound 5-24]	100

Compound	inhibition at 10 µM [%]
Cc1ccc(F)cc1OCc1c(-c2ccccc2Cl)ccc2c1N(C)C(=O)C(C)(C)N2 [Compound 6-4]	98
COc1ccccc1-c1ccc2c(c1COc1cc(F)ccc1C)N(C)C(=O)C(C)(C)N2 [Compound 6-8]	98
CSc1ccccc1-c1ccc2c(c1COc1cc(F)ccc1C)N(C)C(=O)C(C)(C)N2 [Compound 6-10]	100
COc1cc(F)ccc1-c1ccc2c(c1COc1cc(F)ccc1C)N(C)C(=O)C(C)(C)N2 [Compound 6-12]	100
COc1ccc(Cl)cc1-c1ccc2c(c1COc1cc(F)ccc1C)N(C)C(=O)C(C)(C)N2 [Compound 6-15]	100
COc1ccc(C(F)(F)F)cc1-c1ccc2c(c1COc1cc(F)ccc1C)N(C)C(=O)C(C)(C)N2 [Compound 6-19]	100
COc1cccc(F)c1-c1ccc2c(c1COc1cc(F)ccc1C)N(C)C(=O)C(C)(C)N2 [Compound 6-23]	98
COc1ccc([N+](=O)[O-])cc1-c1ccc2c(c1COc1cc(F)ccc1C)N(C)C(=O)C(C)(C)N2 [Compound 6-27, 8-(5-fluoro-2-methylphenoxymethyl)-7-(2-methoxy-5-nitrophenyl)-1,3,3-trimethyl-3,4-dihydro-1H-quinoxalin-2-one]	100
COc1ccc(OC(=O)c2ccccc2)cc1-c1ccc2c(c1COc1cc(F)ccc1C)N(C)C(=O)C(C)(C)N2 [Compound 6-32]	89
COc1ccc(C(F)(F)F)cc1-c1ccc2c3c1CN(c1ccccc1OC)CN3C(=O)C(C)(C)N2 [Compound 6-38]	100
COc1cc(N)ccc1-c1ccc2c(c1COc1cc(F)ccc1C)N(C)C(=O)C(C)(C)N2 [Compound 8-2]	100
COc1ccc(CO)cc1-c1ccc2c(c1COc1cc(F)ccc1C)N(C)C(=O)C(C)(C)N2 [Compound 9-1, 8-(5-Fluoro-2-methylphenoxymethyl)-7-(5-hydroxymethyl-2-methoxyphenyl)-1,3,3-trimethyl-3,4-dihydro-1H-quinoxalin-2-one]	100
COc1cc(O)ccc1-c1ccc2c(c1COc1cc(F)ccc1C)N(C)C(=O)C(C)(C)N2 [Compound 11, 8-(5-fluoro-2-methylphenoxymethyl)-7-(4-hydroxy-2-methoxyphenyl)-1,3,3-trimethyl-3,4-dihydro-1H-quinoxalin-2-one]	100
COc1cc(O)ccc1-c1ccc2c(c1COC(=O)c1ccc(C)s1)N(C)C(=O)C(C)(C)N2 [Compound 13-2, 7-(4-Hydroxy-2-methoxyphenyl)-8-(5-methylthiophen-2-ylcarbonyloxymethyl)-1,3,3-trimethyl-3,4-dihydro-1H-quinoxalin-2-one]	91
COc1cc(OC(=O)c2ccccc2C)ccc1-c1ccc2c(c1COc1cc(F)ccc1C)N(C)C(=O)C(C)(C)N2 [Compound 14-2]	100
COc1cc(OC(=O)c2ccccc2Cl)ccc1-c1ccc2c(c1COc1cc(F)ccc1C)N(C)C(=O)C(C)(C)N2 [Compound 14-4]	100
COc1cc(OC(=O)c2ccoc2)ccc1-c1ccc2c(c1COc1cc(F)ccc1C)N(C)C(=O)C(C)(C)N2 [Compound 14-11]	100
COc1cc(NC(=O)c2ccncc2)ccc1-c1ccc2c(c1COc1cc(F)ccc1C)N(C)C(=O)C(C)(C)N2 [Compound 14-21, 8-(5-fluoro-2-methylphenoxymethyl)-7-[2-methoxy-4-(pyridin-4-ylcarbonylamino)phenyl]-1,3,3-trimethyl-3,4-dihydro-1H-quinoxalin-2-one]	100
COc1cc(NC(=O)c2ccccc2Cl)ccc1-c1ccc2c(c1COc1cc(F)ccc1C)N(C)C(=O)C(C)(C)N2 [Compound 14-22]	100
COc1ccc(C(=O)Oc2ccc(-c3ccc4c(c3COc3cc(F)ccc3C)N(C)C(=O)C(C)(C)N4)c(OC)c2)cc1 [Compound 14-30]	100
C=CC(=O)Oc1ccc(-c2ccc3c(c2COc2cc(F)ccc2C)N(C)C(=O)C(C)(C)N3)c(OC)c1 [Compound 14-33]	100
